Test results from patent publication US20060116368A1, “4-Piperidinecarboxamide modulators of vanilloid VR1 receptor” (priority 2004, published 2006).

Biological target: T1, Human Vanilloid Receptor 1 (Homo sapiens, UniProt Q8NER1)
T1 construct: expressed in transfected cells; host or cells: HEK 293
Assay: Human VR1 functional assay using FLIPR, Protocol 1
Format: cell-based
Conditions: for inhibition at 9 µM: HEK293, 9 uM, inhibition of capsaicin (EC80)-induced calcium response, HEK 293 cells transfected with hVR1, read-out: h % I (9 uM); for IC50: decreased capsaicin (EC80)-induced calcium response, HEK 293 hVR1, read-out: h IC50; for Emax at 12.2 µM: HEK293, 12.2 uM, test compound-induced calcium response (agonist mode), HEK 293 hVR1, read-out: % maximal reponse to capsaicin (12.2 uM); for EC50: test compound-induced calcium response at the 5-minute time point, HEK 293 hVR1, read-out: h EC50
Method: The functional activity of the test compounds was determined by measuring changes in intracellular calcium concentration using FLIPR™ Calcium-3 Assay Kit and FLIPR™ technology.
HEK 293 cells transfected with Human Vanilloid Receptor 1 were maintained at 37° C. and 5% CO2 in: Dulbecco's Modification of Eagle's Medium (high glucose, L-glutamine, pyridoxine HCl, No sodium pyruvate), 10% FBS, 1× Penicillin-Streptomycin-Amphotericin B, 200 ug/mL zeocin. Approximately 24 hours prior to assay, 30,000 cells/well were plated onto a 384-well black clear bottom poly-D-lysine-coated assay plate with a well volume of 25 µL using Titertek Multidrop.
On the day of the assay, the medium was dumped and 50 μL 1× dye were loaded using Multidrop. Plates were incubated with dye at 37° C. for 30 minutes followed by 30 minutes incubation at room temperature. Then the plates were assayed by FLIPR™ with 2 additions: 12.5 μL test compound with 5 minutes data acquisition followed by 12.5 μL capsaicin at the EC80 concentration.
The EC50 values of test compounds were calculated based on a test compound-induced calcium response at the 5-minute time point. The IC50 values of compounds were calculated based on a decreased capsaicin-induced calcium response in the presence of test compound.

T1 sequence (Q8NER1 whole entry): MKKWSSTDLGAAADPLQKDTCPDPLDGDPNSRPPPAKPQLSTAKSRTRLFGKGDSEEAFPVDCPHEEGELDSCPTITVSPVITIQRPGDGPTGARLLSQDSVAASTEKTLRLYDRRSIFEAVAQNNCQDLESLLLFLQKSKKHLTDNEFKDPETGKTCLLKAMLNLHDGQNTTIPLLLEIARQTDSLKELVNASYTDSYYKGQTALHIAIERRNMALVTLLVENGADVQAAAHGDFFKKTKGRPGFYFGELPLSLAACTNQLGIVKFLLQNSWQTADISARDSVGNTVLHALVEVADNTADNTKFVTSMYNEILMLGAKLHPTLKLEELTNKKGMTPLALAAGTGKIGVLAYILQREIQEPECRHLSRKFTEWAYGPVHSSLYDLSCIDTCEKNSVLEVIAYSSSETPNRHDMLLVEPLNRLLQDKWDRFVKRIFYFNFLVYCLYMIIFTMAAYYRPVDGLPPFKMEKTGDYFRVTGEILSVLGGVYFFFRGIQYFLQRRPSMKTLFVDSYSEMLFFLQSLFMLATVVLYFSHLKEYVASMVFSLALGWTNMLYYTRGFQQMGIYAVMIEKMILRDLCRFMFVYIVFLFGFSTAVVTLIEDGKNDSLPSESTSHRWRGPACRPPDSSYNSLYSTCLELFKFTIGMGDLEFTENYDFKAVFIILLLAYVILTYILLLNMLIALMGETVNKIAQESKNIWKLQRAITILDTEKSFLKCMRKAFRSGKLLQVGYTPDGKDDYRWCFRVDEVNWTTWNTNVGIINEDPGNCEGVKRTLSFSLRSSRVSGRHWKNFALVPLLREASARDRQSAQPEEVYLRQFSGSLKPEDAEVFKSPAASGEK

| inhibition at 9 µM | IC50 | Emax at 12.2 µM | EC50 | SMILES |
| --- | --- | --- | --- | --- |
| 93.3% | 60 nM | – | – | O=C1COc2ccc(NC(=O)C3CCN(c4cc(F)c(F)c(F)c4)CC3)cc2N1 [Example 156, 1-(3,4,5-Trifluoro-phenyl)-piperidine-4-carboxylic acid (3-oxo-3,4-dihydro-2H-benzo[1,4]oxazin-6-yl)-amide] |
| – | – | 40% | 5310 nM | O=C(Nc1cccc2cc[nH]c12)C1CCN(c2cccc(C(F)(F)F)c2)CC1 [Example 30, 1-(3-Trifluoromethyl-phenyl)-piperidine-4-carboxylic acid (1H-indol-7-yl)-amide] |
| 61.4% | 1200 nM | – | – | CC(=O)N1CCc2c(NC(=O)C3CCN(c4cccc(C(F)(F)F)c4)CC3)cccc21 [Example 46, 1-(3-Trifluoromethyl-phenyl)-piperidine-4-carboxylic acid (1-acetyl-2,3-dihydro-1H-indol-4-yl)-amide] |
| 61% | 4570 nM | – | – | O=C(Nc1ccc2c(c1)OCO2)C1CCN(c2cccc(C(F)(F)F)c2)CC1 [Example 15, 1-(3-Trifluoromethyl-phenyl)-piperidine-4-carboxylic acid benzo[1,3]dioxol-5-ylamide] |
| 5% | – | – | – | CCn1cnc2c(NC(=O)C3CCN(c4cccc(C(F)(F)F)c4)CC3)ncnc21 [Example 7, 1-(3-Trifluoromethyl-phenyl)-piperidine-4-carboxylic acid (9-ethyl-9H-purin-6-yl)-amide] |
| 109% | 600 nM | – | – | O=C(Nc1cnc2ccccc2c1)C1CCN(c2cccc(C(F)(F)F)c2)CC1 [Example 2, 1-(3-Trifluoromethyl-phenyl)-piperidine-4-carboxylic acid quinolin-3-ylamide] |
| – | – | 49% | 470 nM | O=C1Cc2cc(NC(=O)C3CCN(c4cccc(C(F)(F)F)c4)CC3)ccc2N1 [Example 17, 1-(3-Trifluoromethyl-phenyl)-piperidine-4-carboxylic acid (2-oxo-2,3-dihydro-1H-indol-5-yl)-amide] |
| 9.5% | – | – | – | O=C(Nc1cc(-c2cccs2)n[nH]1)C1CCN(c2cccc(C(F)(F)F)c2)CC1 [Example 48, 1-(3-Trifluoromethyl-phenyl)-piperidine-4-carboxylic acid (5-thiophen-2-yl-2H-pyrazol-3-yl)-amide] |
| 16% | – | – | – | O=C(Nc1ccc2c(=O)[nH][nH]c(=O)c2c1)C1CCN(c2cccc(C(F)(F)F)c2)CC1 [Example 31, 1-(3-Trifluoromethyl-phenyl)-piperidine-4-carboxylic acid (1,4-dioxo-1,2,3,4-tetrahydro-phthalazin-6-yl)-amide] |
| – | – | 68.5% | 1500 nM | Cn1ncc2cc(NC(=O)C3CCN(c4cccc(C(F)(F)F)c4)CC3)ccc21 [Example 24, 1-(3-Trifluoromethyl-phenyl)-piperidine-4-carboxylic acid (1-methyl-1H-indazol-5-yl)-amide] |
| 45.7% | – | – | – | O=C1COc2ncc(NC(=O)C3CCN(c4cccc(C(F)(F)F)c4)CC3)cc2N1 [Example 167, 1-(3-Trifluoromethyl-phenyl)-piperidine-4-carboxylic acid (2-oxo-2,3-dihydro-1H-pyrido[2,3-b][1,4]oxazin-7-yl)-amide] |
| 102% | 230 nM | – | – | Cc1cccc(N2CCC(C(=O)Nc3cnc4ccccc4c3)CC2)c1C [Example 5, 1-(2,3-Dimethyl-phenyl)-piperidine-4-carboxylic acid quinolin-3-ylamide] |
| 7% | – | – | – | O=C(Nc1cnc2ccccc2c1)C1CCN(c2ccc(-c3ccccc3)cc2)CC1 [Example 1, 1-Biphenyl-4-yl-piperidine-4-carboxylic acid quinolin-3-ylamide] |
| 28.7% | – | – | – | O=C1COc2ccc(NC(=O)C3CCN(c4ncccc4[N+](=O)[O-])CC3)cc2N1 [Example 161, 3′-Nitro-3,4,5,6-tetrahydro-2H-[1,2′]bipyridinyl-4-carboxylic acid (3-oxo-3,4-dihydro-2H-benzo[1,4]oxazin-6-yl)-amide] |
| 16% | – | – | – | Cn1cnc2c(N3CCC(C(=O)Nc4cccc5[nH]ccc45)CC3)ncnc21 [Example 54, 1-(9-Methyl-9H-purin-6-yl)-piperidine-4-carboxylic acid (1H-indol-4-yl)-amide] |
| 3.5% | – | – | – | O=C(Nc1ncnc2ccccc12)C1CCN(c2cccc(C(F)(F)F)c2)CC1 [Example 39, 1-(3-Trifluoromethyl-phenyl)-piperidine-4-carboxylic acid quinazolin-4-ylamide] |

| inhibition at 9 µM | IC50 | Emax at 12.2 µM | EC50 | SMILES |
| --- | --- | --- | --- | --- |
| 7.5% | – | – | – | Cc1nc2cc(NC(=O)C3CCN(c4cccc(C(F)(F)F)c4)CC3)ccc2s1 [Example 19, 1-(3-Trifluoromethyl-phenyl)-piperidine-4-carboxylic acid (2-methyl-benzothiazol-5-yl)-amide] |
| – | – | 74% | 860 nM | Cc1nsc2ccc(NC(=O)C3CCN(c4cccc(C(F)(F)F)c4)CC3)cc12 [Example 12, 1-(3-Trifluoromethyl-phenyl)-piperidine-4-carboxylic acid (3-methyl-benzo[d]isothiazol-5-yl)-amide] |
| 11% | – | – | – | COc1ccc(-c2cnc(NC(=O)C3CCN(c4cccc(C(F)(F)F)c4)CC3)nc2C)cc1OC [Example 42, 1-(3-Trifluoromethyl-phenyl)-piperidine-4-carboxylic acid [5-(3,4-dimethoxy-phenyl)-4-methyl-pyrimidin-2-yl]-amide] |
| 7.5% | – | – | – | O=C(Nc1cnc2ccccc2c1)C1CCN(c2ccc(C(F)(F)F)cc2)CC1 [Example 4, 1-(4-Trifluoromethyl-phenyl)-piperidine-4-carboxylic acid quinolin-3-ylamide] |
| 77% | 2180 nM | – | – | O=C(Nc1ccc2c(c1)OCCCO2)C1CCN(c2cccc(C(F)(F)F)c2)CC1 [Example 28, 1-(3-Trifluoromethyl-phenyl)-piperidine-4-carboxylic acid (3,4-dihydro-2H-benzo[b][1,4]dioxepin-7-yl)-amide] |
| – | – | 81% | 860 nM | O=C(Nc1ncnc2sccc12)C1CCN(c2cccc(C(F)(F)F)c2)CC1 [Example 10, 1-(3-Trifluoromethyl-phenyl)-piperidine-4-carboxylic acid thieno[2,3-d]pyrimidin-4-ylamide] |
| 4% | – | – | – | CCOC(=O)c1[nH]c2ccccc2c1NC(=O)C1CCN(c2cccc(C(F)(F)F)c2)CC1 [Example 14, 3-{[1-(3-Trifluoromethyl-phenyl)-piperidine-4-carbonyl]-amino}-1H-indole-2-carboxylic acid ethyl ester] |
| 13% | – | – | – | O=C(Nc1ccc(Oc2ccccc2)nc1)C1CCN(c2cccc(C(F)(F)F)c2)CC1 [Example 32, 1-(3-Trifluoromethyl-phenyl)-piperidine-4-carboxylic acid (6-phenoxy-pyridin-3-yl)-amide] |
| 12.5% | – | – | – | O=C(Nc1ccc2c(c1)OCCO2)C1CCN(c2cccc(C(F)(F)F)c2)CC1 [Example 18, 1-(3-Trifluoromethyl-phenyl)-piperidine-4-carboxylic acid (2,3-dihydro-benzo[1,4]dioxin-6-yl)-amide] |
| 5% | – | – | – | CNc1ccc2ncncc2c1NC(=O)C1CCN(c2cccc(C(F)(F)F)c2)CC1 [Example 45, 1-(3-Trifluoromethyl-phenyl)-piperidine-4-carboxylic acid (6-methylamino-quinazolin-5-yl)-amide] |
| 94.8% | 380 nM | – | – | O=C1COc2ccc(NC(=O)C3CCN(c4ccccc4C(F)(F)F)CC3)cc2N1 [Example 165, 1-(2-Trifluoromethyl-phenyl)-piperidine-4-carboxylic acid (3-oxo-3,4-dihydro-2H-benzo[1,4]oxazin-6-yl)-amide] |
| 39% | – | – | – | Cc1cccnc1N1CCC(C(=O)Nc2ccc3c(c2)NC(=O)CO3)CC1 [Example 158, 3′-Methyl-3,4,5,6-tetrahydro-2H-[1,2′]bipyridinyl-4-carboxylic acid (3-oxo-3,4-dihydro-2H-benzo[1,4]oxazin-6-yl)-amide] |
| 79.3% | 1420 nM | – | – | COc1cccc(N2CCC(C(=O)Nc3ccc4c(c3)NC(=O)CO4)CC2)c1 [Example 150, 1-(3-Methoxy-phenyl)-piperidine-4-carboxylic acid (3-oxo-3,4-dihydro-2H-benzo[1,4]oxazin-6-yl)-amide] |
| 11.5% | – | – | – | Cc1nc2ccc(NC(=O)C3CCN(c4cccc(C(F)(F)F)c4)CC3)nc2nc1C [Example 40, 1-(3-Trifluoromethyl-phenyl)-piperidine-4-carboxylic acid (2,3-dimethyl-pyrido[2,3-b]pyrazin-6-yl)-amide] |
| 20.7% | – | – | – | O=C1COc2ccc(NC(=O)C3CCN(c4nc5ccccc5s4)CC3)cc2N1 [Example 159, 1-Benzothiazol-2-yl-piperidine-4-carboxylic acid (3-oxo-3,4-dihydro-2H-benzo[1,4]oxazin-6-yl)-amide] |
| 93% | 130 nM | – | – | O=C1COc2ccc(NC(=O)C3CCN(c4cccc(F)c4Br)CC3)cc2N1 [Example 160, 1-(2-Bromo-3-fluoro-phenyl)-piperidine-4-carboxylic acid (3-oxo-3,4-dihydro-2H-benzo[1,4]oxazin-6-yl)-amide] |
